In brackets after ≈: the same amount, converted by molar mass. Where two headings read alike, the source gives them in different places.
Legend:
In vitro hemolytic assay = assay type: cell-based; details: 2% erythrocyte suspension (washed red blood cells); 2% erythrocyte suspension, 3 μl of 1 mg/ml compound in DMF per 240 μl well, 37°C 30 min, absorbance 405 nm; <5% considered nontoxic
Protocol: Compounds 5a-x and 6a-h were subjected to the in vitro hemolytic assay to identify those which cause hemolysis to red blood cells (RBCs). Consequently, these compounds would be toxic in vivo so they were excluded from further biological screening.
Blood samples (5 ml) were freshly collected into heparinized tubes and were centrifuged (1000 r.p.m. for 20 min) at room temperature. The plasma and buffy coat were removed by Pasteur pipette, and the collected erythrocytes were washed three-times using isotonic buffer solution (0.9% sodium chloride [Sigma-Aldrich, MO, USA]) by centrifugation (2500 r.p.m. for 10 min). A two percent erythrocyte suspension was prepared to be used in the assay.
A 1 mg/ml stock solution of each compound was prepared in DMF (Sigma-Aldrich). Compound wells were prepared by adding 3 μl of the compound solution to 117 μl isotonic buffer solution and 120 μl erythrocyte suspension. Compounds color blank wells were prepared by adding 3 μl compound to 237 μl isotonic buffer solution. Solvent (DMF) wells were prepared by adding 3 μl DMF to 117 μl isotonic buffer solution and 120 μl erythrocyte suspension. Positive control wells (representing 100% hemolysis) were prepared by adding 120 μl erythrocyte suspension to 120 μl distilled water, while negative control wells (representing 0% hemolysis) were prepared by adding 120 μl erythrocyte suspension to 120 μl isotonic buffer solution. Finally, blank wells contained only 240 μl isotonic buffer solution. Each set of samples was pipetted in triplicate. The microtiter plate was then shaken well on bench, incubated at 37°C for 30 min then centrifuged (2000 rpm for 5 min) at room temperature.
A fraction of the supernatant layer (150 μl) of each well was transferred to another 96-well microtiter plate. Erythrocyte hemolysis was determined by reading the absorbance (A) of liberated hemoglobin at 405 nm in the supernatant fraction compared with the 100% hemolysis of erythrocyte. The average value was calculated from triplicate assay: [drawing 2]

[1] = tested on: human HCC cell line HepG2; test: cells; assay type: cell-based; details: for IC50: Homo sapiens, HepG2, 72 h, neutral red; for IC50 / (LD0) HepG2 / Safe doses (100% viability of HepG2) LD0: 72 h; for (LD0) HepG2 / Safe doses (100% viability of HepG2) LD0: human; for in vitro anticancer activity against HepG2, in words: IC50 <100 μg/ml potential, 100-1000 μg/ml moderate
Protocol: The safe compounds on RBCs (5a-g, 5i-l, 5p-r, 5v-w, 6b-g) were screened for their potential anticancer activity against human HCC cell line HepG2. HepG2 cells were exposed to the test compounds, then viability of cells was measured using neutral red uptake assay as described by Borenfreund and Puerner. This assay depends on the fact that neutral red dye can be incorporated into the lysosomes of living cells providing a quantitative assay to the cytotoxic effects. The results were interpreted to calculate both the concentration causing 50% cancer cell death (IC50) of each compound and the maximum safe concentration that cause 100% viability (LD0; to be used in the in vitro anti-HCV testing) using GraphPad InStat 3.0 software (Figure 5 & Supplementary Table 2).
HepG2 cells were routinely maintained as adherent cell cultures in RPMI-1640 medium (Lonza Group Ltd, Basel, Switzerland) supplemented with 10% fetal bovine serum (FBS; Lonza, IL, USA) at 37°C in a humidified air incubator containing 5% CO2. Cells were subcultured for 2 weeks before assay. Cell viability was assessed using trypan blue exclusion method.
HepG2 cells were washed twice in RPMI-1640 medium supplemented with 200 μM L-glutamine (Lonza) and […] 4-(2-hydroxyethyl)-1-piperazineethanesulfonic acid (HEPES) buffer (Lonza). The cells were suspended at 3 × 10^4 cells/ml in RPMI culture medium (RPMI supplemented medium and 10% FBS). The appropriate number of cells was chosen to be 3 × 10^3 cells/well (100 μl of the prepared suspension), and the cells were left to adhere on the polystyrene 96-well plates in an incubator at 37°C, 5% CO2 and 95% humidity for 24 h. The cells were washed once using RPMI supplemented medium.
A 2 mg/ml stock solution of each compound was prepared in DMF and filtered using a 0.2 μM syringe filter. The desired concentrations (20, 10, 5, 2.5 and 1.25 μg/ml) were prepared using serial dilution in a 96-well plate. Compound wells were prepared by adding 100 μl of the previously prepared concentrations to a 100 μl of HepG2 cells suspension. Parallel concentrations of the solvent were prepared to be used as controls. 5-Fluorouracil was used as a positive control. Control wells were prepared by adding 100 μl culture media to a 100 μl of HepG2 cells suspension. Blank wells contained 200 μl of culture media only (without cells or compound solution). Each set of samples was pipetted in duplicate. The plate was gently shaken, then incubated at 37°C, 5% CO2 for 72 h.
After incubation, the plate was centrifuged (2000 r.p.m. for 10 min). The media were discarded by inversion over paper towels. A working solution (100 μg/ml) of neutral red stain (Bio Basic Inc, Markham, Canada) was prepared, and 100 μl of this solution was added to each well, then the plate was gently shaken. The plate was incubated at 37°C in humidified 5% CO2 for 3 h, and then centrifuged (2000 r.p.m. for 10 min). Excess dyes were discarded, and the cells were fixed with 100 μl fixing solution (0.5% formalin with 1% calcium chloride [Sigma-Aldrich]) for 1 min. Cells were destained in 100 μl destaining solution (50% ethanol with 1% glacial acetic acid [Sigma-Aldrich]) for 5 min by shaking. The stain intensity was assayed using automated microplate reader spectrophotometer adjusted at 490 nm. Surviving cell fraction was calculated according to the following equation: [drawing 3]
The results were interpreted to calculate both the concentration causing 50% cancer cell death (IC50) of each compound and the maximum safe concentration that cause 100% viability (LD0; to be used in the in vitro anti-HCV testing) using GraphPad InStat 3.0 software.

[2] = Supplementary Table 2, read-out: Anticancer (HepG2) IC50
[3] = Table 1, read-out: IC50 (HepG2)

Row | SMILES | hemolysis at 30 min, 12.5 µg/ml (In vitro hemolytic assay) [%] | IC50 [1, 2] [µg/mL] | (LD0) HepG2 [1] [µg/mL] | Safe doses (100% viability of HepG2) LD0 [1] [µg/mL] | in vitro anticancer activity against HepG2, in words [1] | IC50 [1, 3] [µg/mL] | Selectivity index ([1]; LD50 on PBMC / IC50 on HepG2) | Selectivity index ([1]; LD50 on normal cells / IC50 on cancer cells, larger than three = highly selective)
1 | CC(=NN=C1SC(=Cc2cn(-c3ccccc3)nc2-c2ccccc2)C(=O)N1c1ccccc1)c1cc2ccccc2o1 [Compound 5a, 2-[1-(Benzofuran-2-yl)ethylidenehydrazono]-5-[(1,3-Diphenyl-1H-pyrazol-4-yl)methylene]-3-phenylthiazolidin-4-one] | 3.27 | 173 (≈ 298 µM) | 10.15 | 10.15 | – | – | – | –
2 | CC(=NN=C1SC(=Cc2cn(-c3ccccc3)nc2-c2ccc(Cl)cc2)C(=O)N1c1ccccc1)c1cc2ccccc2o1 [Compound 5b, 2-[1-(Benzofuran-2-yl)ethylidenehydrazono]-5-{[3-(4-chlorophenyl)-1-phenyl-1H-pyrazol-4-yl]methylene}-3-phenylthiazolidin-4-one] | 4.22 | 120 (≈ 195 µM) | 23.02 | 23.02 | – | – | – | –
3 | COc1ccc(-c2nn(-c3ccccc3)cc2C=C2SC(=NN=C(C)c3cc4ccccc4o3)N(c3ccccc3)C2=O)cc1 [Compound 5c, 2-[1-(Benzofuran-2-yl)ethylidenehydrazono]-5-{[3-(4-methoxyphenyl)-1-phenyl-1H-pyrazol-4-yl]methylene}-3-phenylthiazolidin-4-one] | 1.65 | 143 (≈ 235 µM) | 5.88 | 5.88 | – | – | – | –
4 | CC(=NN=C1SC(=Cc2cn(-c3ccccc3)nc2-c2ccccc2)C(=O)N1c1ccc(Cl)cc1)c1cc2ccccc2o1 [Compound 5d, 2-[1-(Benzofuran-2-yl)ethylidenehydrazono]-5-[(1,3-Diphenyl-1H-pyrazol-4-yl)methylene]-3-(4-chlorophenyl)thiazolidin-4-one] | 1.05 | 1140 (≈ 1850 µM) | 163.55 | 163.55 | very weak anticancer activity | – | – | –
5 | CC(=NN=C1SC(=Cc2cn(-c3ccccc3)nc2-c2ccc(Cl)cc2)C(=O)N1c1ccc(Cl)cc1)c1cc2ccccc2o1 [Compound 5e, 2-[1-(Benzofuran-2-yl)ethylidenehydrazono]-5-{[3-(4-chlorophenyl)-1-phenyl-1H-pyrazol-4-yl]methylene}-3-(4-chlorophenyl)thiazolidin-4-one] | 3.82 | 318 (≈ 490 µM) | 31.12 | 31.12 | – | – | – | –
6 | COc1ccc(-c2nn(-c3ccccc3)cc2C=C2SC(=NN=C(C)c3cc4ccccc4o3)N(c3ccc(Cl)cc3)C2=O)cc1 [Compound 5f, 2-[1-(Benzofuran-2-yl)ethylidenehydrazono]-5-{[3-(4-methoxyphenyl)-1-phenyl-1H-pyrazol-4-yl]methylene}-3-(4-chlorophenyl)thiazolidin-4-one] | 4.59 | – | 10.39 | 10.39 | potential in vitro anticancer activity | 69.4 (≈ 108 µM) | 3.74 | larger than three
7 | COc1ccc(N2C(=O)C(=Cc3cn(-c4ccccc4)nc3-c3ccccc3)SC2=NN=C(C)c2cc3ccccc3o2)cc1 [Compound 5g, 2-[1-(Benzofuran-2-yl)ethylidenehydrazono]-5-[(1,3-Diphenyl-1H-pyrazol-4-yl)methylene]-3-(4-methoxyphenyl)thiazolidin-4-one] | 2.03 | 193 (≈ 316 µM) | 66.72 | 66.72 | – | – | – | –
8 | COc1ccc(-c2nn(-c3ccccc3)cc2C=C2SC(=NN=C(C)c3cc4ccccc4o3)N(c3ccc(OC)cc3)C2=O)cc1 [Compound 5i, 2-[1-(Benzofuran-2-yl)ethylidenehydrazono]-5-{[3-(4-methoxyphenyl)-1-phenyl-1H-pyrazol-4-yl]methylene}-3-(4-methoxyphenyl)thiazolidin-4-one] | 2.97 | 120 (≈ 188 µM) | 0.05 | 0.05 | – | – | – | –
9 | CC(=NN=C1SC(=Cc2cn(-c3ccccc3)nc2-c2ccccc2)C(=O)N1C1CCCCC1)c1cc2ccccc2o1 [Compound 5j, 2-[1-(Benzofuran-2-yl)ethylidenehydrazono]-5-[(1,3-Diphenyl-1H-pyrazol-4-yl)methylene]-3-cyclohexylthiazolidin-4-one] | 3.01 | – | 5.08 | 5.08 | potential in vitro anticancer activity | 63.8 (≈ 109 µM) | 2.10 | –
10 | CC(=NN=C1SC(=Cc2cn(-c3ccccc3)nc2-c2ccc(Cl)cc2)C(=O)N1C1CCCCC1)c1cc2ccccc2o1 [Compound 5k, 2-[1-(Benzofuran-2-yl)ethylidenehydrazono]-5-{[3-(4-chlorophenyl)-1-phenyl-1H-pyrazol-4-yl]methylene}-3-cyclohexylthiazolidin-4-one] | 4.44 | 150 (≈ 242 µM) | 56.74 | 56.74 | – | – | – | –
